Measured values from article PMC4295030, “Synthesis and molecular docking of novel non-competitive antagonists of GluK2 receptor” (Medicinal Chemistry Research, 2014).

Test system: T1, GluK2 receptor
T1 construct: gene GRIK2
Test: aequorin luminescence Ca2+ influx assay in HEK293 cells
Format: cell-based
Settings: 275 μM glutamate as agonist, Ringer buffer + 100 mM CaCl2
From the text: aequorin luminescence Ca2+ influx assay in HEK293 cells on GluK2 receptor

IC50 (non-competitive) [µM] | SMILES | GluK2 inhibition at 100 µM, % [%]
– | O=C1CCCc2c1c1ccccc1n2Cc1ccc(Cl)cc1 [compound 7, 9-(4-chlorobenzyl)-4-oxo-1,2,3,4-tetrahydrocarbazole] | 22
12 | COc1ccc2c(c1)c(C)c(-c1cccs1)n2C [compound 3, 5-methoxy-1,3-dimethyl-2-(2-thienyl)indole] | –
